# Test results taken from patent US20250222009A1, “DINUCLEAR GOLD(I) COMPLEXES FOR TREATING CANCER” (KING FAHD UNIVERSITY OF PETROLEUM AND MINERALS, priority 2024, published 2025).
# Legend:
# A549 cells [1] = experiment: Crystal violet staining cell viability; format: cell-based, human; conditions: A549, 72 h
# Description: (§1) 2.5×10^3 (PC3, MG63, MCF7) or 4.0×10^3 (A2780, A2780cis, A549) cells were seeded in 96-well microplates in 100 μL culture medium. Cells, allowed to adhere for 24 h, were then treated in triplicate with increasing concentrations of gold compounds. Cisplatin was included as a reference drug. Cell viability was evaluated using 3-(4,5-dimethylthiazol-2-yl)-2,5-diphenyltetrazolium bromide (MTT) assay (Sigma-Aldrich) after 72 h of treatment. Half maximal inhibitory concentrations (IC50), IC25, and IC75 were calculated using the CalcuSyn software version 2 (Biosoft, Ferguson, MO, USA) (See: Chou, T. C.; Talalay, P. Quantitative Analysis of Dose-Effect Relationships: The Combined Effects of Multiple Drugs or Enzyme Inhibitors. Adv. Enzyme Regul. 1984, 22, 27-55, which is incorporated herein by reference in its entirety). Fold resistance was calculated as the ratio of the IC50 of the A2780cis to that of the parental cell line A2780. Alternatively, cell viability was assayed by crystal violet staining (See: Feoktistova, M.; Geserick, P.; Leverkus, M. Crystal Violet Assay for Determining Viability of Cultured Cells. Cold Spring Harb Protoc 2016, 2016, pdb.prot087379, which is incorporated herein by reference in its entirety). […]
# [2] = test system: A2780 ovarian cancer cells; experiment: MTT cytotoxicity assay, A2780; format: cell-based, human; conditions: 72 h, mean (SD)
# Description: (§2) The human epithelial ovarian cancer A2780 cell line and its cisplatin-resistant clone A2780cis were obtained from Sigma-Aldrich (Milano, Italy). A2780cis cells were continuously exposed to 1 μM cisplatin to maintain cisplatin resistance. A549 cells (Human non-small cell lung cancer), MCF7 (metastatic breast cancer), PC3 (highly aggressive metastatic prostate cancer), and MG63 (osteosarcoma) were obtained from the American Type Culture Collection (ATCC). Cells were authenticated in laboratory using the PowerPlex 16 HS System. A2780, A2780cis, and PC3 cells were cultured in RPMI-1640 medium; MG63 and MCF7 cells were cultured in DMEM, and A549 cells were cultured in F12 NUT-MIX. The culture medium contained about 10% fetal bovine serum (FBS) (Gibco, Thermo Fisher Scientific, Monza, Italy), about 1% (v/v) of penicillin (10,000 units/mL)-streptomycin (10 mg/mL), and about 1% (v/v) L-glutamine (200 mM) (all from Sigma-Aldrich). Cells were cultured at 37° C. in a 5% CO2, fully humidified atmosphere.
# (§3) 2.5×10^3 (PC3, MG63, MCF7) or 4.0×10^3 (A2780, A2780cis, A549) cells were seeded in 96-well microplates in 100 μL culture medium. Cells, allowed to adhere for 24 h, were then treated in triplicate with increasing concentrations of gold compounds. Cisplatin was included as a reference drug. Cell viability was evaluated using 3-(4,5-dimethylthiazol-2-yl)-2,5-diphenyltetrazolium bromide (MTT) assay (Sigma-Aldrich) after 72 h of treatment. Half maximal inhibitory concentrations (IC50), IC25, and IC75 were calculated using the CalcuSyn software version 2 (Biosoft, Ferguson, MO, USA) (See: Chou, T. C.; Talalay, P. Quantitative Analysis of Dose-Effect Relationships: The Combined Effects of Multiple Drugs or Enzyme Inhibitors. Adv. Enzyme Regul. 1984, 22, 27-55, which is incorporated herein by reference in its entirety). Fold resistance was calculated as the ratio of the IC50 of the A2780cis to that of the parental cell line A2780. Alternatively, cell viability was assayed by crystal violet staining (See: Feoktistova, M.; Geserick, P.; Leverkus, M. Crystal Violet Assay for Determining Viability of Cultured Cells. Cold Spring Harb Protoc 2016, 2016, pdb.prot087379, which is incorporated herein by reference in its entirety). Alternatively, after drug treatment, the culture Medium was removed, cells washed, fixed, and stained, and the Crystal Violet solution lasted 20 minutes (See: Sulaiman, A. A. A.; Casagrande, N.; Borghese, C.; Corona, G.; Isab, A. A.; Ahmad, S.; Aldinucci, D.; Altaf M. Design, Synthesis, and Preclinical Activity in Ovarian Cancer Models of New Phosphanegold(I)—N-Heterocyclic Carbene Complexes. J Med Chem 2022, 65, 14424-14440, which is incorporated herein by reference in its entirety).
# [3] = test system: PC3 (androgen-resistant prostate cancer); experiment: MTT cytotoxicity assay, PC3; format: cell-based; conditions: 72 h, mean (SD)
# Description: as §2, §3
# MG-63 (osteosarcoma) = experiment: MTT cytotoxicity assay, MG-63; format: cell-based; conditions: 72 h, mean, SD in next cell
# Description: as §2
# as §1, with “A2780.” for “A2780. Alternatively, cell viability was assayed by crystal violet staining (See: Feoktistova, M.; Geserick, P.; Leverkus, M. Crystal Violet Assay for Determining Viability of Cultured Cells. Cold Spring Harb Protoc 2016, 2016, pdb.prot087379, which is incorporated herein by reference in its entirety).”
# A549 (lung cancer cells) = experiment: MTT cytotoxicity assay, A549; format: cell-based, human; conditions: 72 h
# Description: as §2, §3
# A549 cells [4] = experiment: Cell cycle analysis (propidium iodide, flow cytometry); format: cell-based, human; conditions: A549, 24 h, 0.06-0.60 μM
# Description: (§4) 2.0×10^5 A549 cells were seeded in 6-well plates in a complete medium and treated with the complex 3. Assay results were detected by flow cytometry on a BD FACSCanto II flow cytometer. Data were analyzed using BD FACSDiva v.8.0.1 software (BD Biosciences) unless otherwise indicated. Tumor cells were treated for 72 h with complex 3, then stained for 15 minutes with FITC Annexin-V (Thermo Fisher Scientific) and 7AAD (BD Pharmingen, Milan, Italy). Activated caspase-3,7 was detected using the CaspaTag Caspase-3,7 assay (Merck Millipore) after an incubation of 24 h with complex 3. For B-cell lymphoma/leukemia-2 protein (Bcl-2) and Bcl-2 associated x protein (Bax) analysis, cells were treated for 72 h with C3, then fixed and permeabilized (FIX & PERM Cell Fixation & Cell Permeabilization Kit, Life Technologies). […] The distribution of cells in different cell cycle phases was quantified using ModFit LT 4.0 software (Verity Software House, Topsham, ME, USA) (See: Sulaiman, A. A. A.; Casagrande, N.; Borghese, C.; Corona, G.; Isab, A. A.; Ahmad, S.; Aldinucci, D.; Altaf M. Design, Synthesis, and Preclinical Activity in Ovarian Cancer Models of New Phosphanegold(I)—N-Heterocyclic Carbene Complexes. J Med Chem 2022, 65, 14424-14440, which is incorporated herein by reference in its entirety). […]
# CD44 = CD44 surface expression, flow cytometry; format: cell-based, human; conditions: A549, 24 h
# Description: as §4
smiles,measurement,setting,value
"CC(C)c1cccc(C(C)C)c1-n1ccn(-c2c(C(C)C)cccc2C(C)C)[c]1=[Au-][P+](CCNCC[P+]([Au-]=[c]1n(-c2c(C(C)C)cccc2C(C)C)ccn1-c1c(C(C)C)cccc1C(C)C)(C1CCCCC1)C1CCCCC1)(C1CCCCC1)C1CCCCC1 [Complex 3, [(Au(IPr))2(C28H24P2)](PF6)2]",growth inhibition by crystal violet staining,A549 cells [1],growth inhibition
same,IC50,[2],110 nM
same,IC50,[3],240 nM
same,IC50,MG-63 (osteosarcoma),160 nM
same,IC25 A549,A549 (lung cancer cells),60 nM
same,IC75 A549,A549 (lung cancer cells),600 nM
same,IC50,A549 (lung cancer cells); mean (SD),130 nM
same,cells in G0/G1 phase of the cell cycle,A549 cells [4],accumulation
same,cells in S phase of the cell cycle,A549 cells [4],decrease
same,CD44 expression,CD44,decreased
